Test results as given in ChEMBL document CHEMBL5728191, “Inhibitors of cyclin-dependent kinase 7 (CDK7)” (2020).

Target: CDK7/Cyclin H/MNAT1 (Homo sapiens, UniProt P50613)
Test: Inhibition of Kinase Activity: Compounds of the invention were assayed for activity against a variety of different kinases.
Assay type: protein-complex assay

Chain of CDK7/Cyclin H/MNAT1 (P51946 whole entry): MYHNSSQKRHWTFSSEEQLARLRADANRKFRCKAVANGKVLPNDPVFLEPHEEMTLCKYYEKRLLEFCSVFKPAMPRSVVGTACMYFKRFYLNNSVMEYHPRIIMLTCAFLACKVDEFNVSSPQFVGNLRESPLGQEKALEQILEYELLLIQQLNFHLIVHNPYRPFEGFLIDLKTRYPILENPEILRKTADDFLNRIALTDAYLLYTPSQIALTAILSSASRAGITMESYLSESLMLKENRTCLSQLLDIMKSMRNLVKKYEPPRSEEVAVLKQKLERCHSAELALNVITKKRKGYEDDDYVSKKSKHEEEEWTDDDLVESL
Chain of CDK7/Cyclin H/MNAT1 (P50613 whole entry): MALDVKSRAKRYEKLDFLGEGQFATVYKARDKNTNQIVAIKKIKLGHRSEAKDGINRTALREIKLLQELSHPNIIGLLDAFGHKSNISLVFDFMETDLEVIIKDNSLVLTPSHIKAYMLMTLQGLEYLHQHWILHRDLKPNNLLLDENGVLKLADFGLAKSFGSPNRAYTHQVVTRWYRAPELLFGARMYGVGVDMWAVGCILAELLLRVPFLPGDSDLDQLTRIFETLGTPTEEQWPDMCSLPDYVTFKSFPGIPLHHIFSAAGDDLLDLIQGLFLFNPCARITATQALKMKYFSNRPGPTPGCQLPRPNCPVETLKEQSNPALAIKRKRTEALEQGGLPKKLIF
Chain of CDK7/Cyclin H/MNAT1 (P51948 whole entry, further chain): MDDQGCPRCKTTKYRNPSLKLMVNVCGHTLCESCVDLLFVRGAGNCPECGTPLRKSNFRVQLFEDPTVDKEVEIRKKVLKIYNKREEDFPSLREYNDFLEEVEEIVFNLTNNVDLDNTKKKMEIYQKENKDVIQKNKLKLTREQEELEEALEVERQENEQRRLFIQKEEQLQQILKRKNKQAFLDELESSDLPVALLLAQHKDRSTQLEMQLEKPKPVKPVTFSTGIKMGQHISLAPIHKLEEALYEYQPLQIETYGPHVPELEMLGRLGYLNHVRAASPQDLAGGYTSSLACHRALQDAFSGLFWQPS

- IC50: > 0.5 µM
SMILES: C=CC(=O)Nc1ccc(C(=O)Nc2nn(C)c3c2CN(C(=O)NC(C)CN(C)C)C3(C)C)cc1 (stereo unspecified)
